We go through two molecules from patent US20120095028A1, “3-OXA-7-AZABICYCLO[3.3.1]NONANES” (Pfizer Inc., priority 2009, published 2012).

Molecules are shown by their SMILES. Values joined by “and” are separate entries in the source; they are usually repeats but may differ in a detail not shown here. Identical values can stand only once.

The target in the experiment is T1, human GPR119 (Homo sapiens, UniProt Q8TDV5).
T1 construct: host or cells: HEK293-CRE-β-lactamase cells expressing hGPR119
T1 sequence (Q8TDV5 1-335): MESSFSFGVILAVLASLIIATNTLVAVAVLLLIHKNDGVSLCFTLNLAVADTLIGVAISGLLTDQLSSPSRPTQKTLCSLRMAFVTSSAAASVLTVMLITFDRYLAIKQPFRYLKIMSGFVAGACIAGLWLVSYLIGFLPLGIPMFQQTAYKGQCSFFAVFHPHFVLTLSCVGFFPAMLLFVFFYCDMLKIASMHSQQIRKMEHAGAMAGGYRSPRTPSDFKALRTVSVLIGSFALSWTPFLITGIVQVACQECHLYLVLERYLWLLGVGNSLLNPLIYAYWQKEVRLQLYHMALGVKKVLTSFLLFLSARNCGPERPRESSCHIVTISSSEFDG
The experiment in a line: GPR119 agonist cell-based hGPR119 HEK293-CRE β-lactamase reporter assay. Particulars: one value per run; for EC50: hGPR119-HEK-CRE-β-lactamase cells, 16 hours incubation; for Emax: read-out: Intrinsic Activity*. The method, then:
The assay for GPR119 agonists utilizes a cell-based (hGPR119 HEK293-CRE β-lactamase) reporter construct where agonist activation of human GPR119 is coupled to β-lactamase production via a cyclic AMP response element (CRE). GPR119 activity is then measured utilizing a FRET-enabled R-lactamase substrate, CCF4-AM (Live Blazer FRET-B/G Loading kit, Invitrogen cat #K1027). Specifically, hGPR119-HEK-CRE-β-lactamase cells (Invitrogen 2.5×10^7/mL) were removed from liquid nitrogen storage, and diluted in plating medium (Dulbecco's modified Eagle medium high glucose (DMEM; Gibco Cat #11995-065), 10% heat inactivated fetal bovine serum (HIFBS; Sigma Cat #F4135), 1× MEM Nonessential amino acids (Gibco Cat #15630-080), 25 mM HEPES pH 7.0 (Gibco Cat #15630-080), 200 nM potassium clavulanate (Sigma Cat #P3494). The cell concentration was adjusted using cell plating medium and 50 μL of this cell suspension (12.5×10^4 viablecells) was added into each well of a black, clear bottom, poly-d-lysine coated 384-well plate (Greiner Bio-One cat #781946) and incubated at 37° C. in a humidified environment containing 5% carbon dioxide. After 4 hours the plating medium was removed and replaced with 40 μL of assay medium (Assay medium is plating medium without potassium clavulanate and HIFBS). Varying concentrations of each compound to be tested was then added in a volume of 10 uL (final DMSO≦0.5%) and the cells were incubated for 16 hours at 37° C. in a humidified environment containing 5% carbon dioxide. Plates were removed from the incubator and allowed to equilibrate to room temperature for approximately 15 minutes. 10 uL of 6× CCF4/AM working dye solution (prepared according to instructions in the Live Blazer FRET-B/G Loading kit, Invitrogen cat #K1027) was added per well and incubated at room temperature for 2 hours in the dark. Fluorescence was measured on an EnVision fluorimetric plate reader, excitation 405 nm, emission 460 nm/535 nm. EC50 determinations were made from agonist-response curves analyzed with a curve fitting program using a 4-parameter logistic dose-response equation.
A general note: Reporter assays use an easily measured gene product as a stand-in for the process of interest.

Setting [1] is: percent of maximal activity relative to standard GPR119 agonist at a final concentration of 10 μM.

`CC(C)OC(=O)N1C[C@H]2COC[C@@H](C1)[C@H]2Oc1ncnc2c1CCN2c1ccc(S(C)(=O)=O)cc1F` [Example 2, Isopropyl 9-anti-({7-[2-fluoro-4-(methylsulfonyl)phenyl]-6,7-dihydro-5H-pyrrolo[2,3-d]pyrimidin-4-yl}oxy)-3-oxa-7-azabicyclo[3.3.1]nonane-7-carboxylate] yielded an EC50 of 23.8 nM. Further, the Emax under setting [1] was 93%.

In the case of `CC(C)OC(=O)N1C[C@H]2COC[C@@H](C1)[C@@H]2Oc1ncnc2c1CCN2c1ccc(S(C)(=O)=O)cc1F` [Example 1, Isopropyl 9-syn-({7-[2-fluoro-4-(methylsulfonyl)phenyl]-6,7-dihydro-5H-pyrrolo[2,3-d]pyrimidin-4-yl}oxy)-3-oxa-7-azabicyclo[3.3.1]nonane-7-carboxylate], the EC50 was 10.5 nM and 12.8 nM and 23.3 nM. Moreover, under setting [1], the “Intrinsic Activity*” value was 88% and 87%; the Emax is 90%.

The term EC50 denotes the concentration giving half of the maximal effect.
